Assays:
[1] = Physical and chemical stability on storage (PXRD, Karl Fischer water content, HPLC purity); details: for change in PXRD pattern on storage / degradation on storage / increase in moisture content on storage / physical and chemical stability (conclusion): 6 months at 40° C./75% RH and at 25° C./60% RH
Experimental: The physical and chemical stability of dolutegravir sodium Form-M2 and Form-M4 was determined by storing the samples at 40° C./75% relative humidity (RH) and at 25° C./60% RH for 6 months. At different time points during storage, the crystal structure of the material was analyzed by PXRD, the water content by Karl Fischer, and by HPLC for final purity.

[2] = Thermodynamic stability of the crystalline form; assay type: physicochemical
[3] = storage at 25° C./60% RH, 1 month
[4] = storage at 25° C./60% RH, 3 months
[5] = storage at 25° C./60% RH, 6 months
[6] = storage at 25° C./60% RH, Initial
[7] = storage at 40° C./75% RH, 1 month
[8] = storage at 40° C./75% RH, 3 months
[9] = storage at 40° C./75% RH, 6 months
[10] = storage at 40° C./75% RH, Initial

C[C@@H]1CCO[C@H]2Cn3cc(C(=O)NCc4ccc(F)cc4F)c(=O)c([O-])c3C(=O)N12.[Na+] [Form-M2, sodium (4R, 12aS)-9-((2,4-difluorobenzyl)carbamoyl)-4-methyl-6,8-dioxo-3,4,6,8, 12, 12a-hexahydro-2H-pyrido[1′,2′:4,5]pyrazino[2,1-b][1,3]oxazin-7-olate]
change in PXRD pattern on storage [1]: no change in PXRD pattern
degradation on storage [1]: no significant degradation
increase in moisture content on storage [1]: no substantial increase in moisture content
physical and chemical stability (conclusion) [1]: physically and chemically stable
HPLC purity (%) [1, 3]: 99.6%
PXRD (polymorph found) [1, 3]: Form-M2
HPLC purity (%) [1, 4]: 99.5%
PXRD (polymorph found) [1, 4]: Form-M2
HPLC purity (%) [1, 5]: 99.5%
PXRD (polymorph found) [1, 5]: Form-M2
HPLC purity (%) [1, 6]: 99.7%
PXRD (polymorph found) [1, 6]: Form-M2
HPLC purity (%) [1, 7]: 99.6%
PXRD (polymorph found) [1, 7]: Form-M2
HPLC purity (%) [1, 8]: 99.5%
PXRD (polymorph found) [1, 8]: Form-M2
HPLC purity (%) [1, 9]: 99.5%
PXRD (polymorph found) [1, 9]: Form-M2
HPLC purity (%) [1, 10]: 99.7%
PXRD (polymorph found) [1, 10]: Form-M2

C[C@@H]1CCO[C@H]2Cn3cc(C(=O)NCc4ccc(F)cc4F)c(=O)c([O-])c3C(=O)N12.[Na+] [Form-M4, sodium (4R, 12aS)-9-((2,4-difluorobenzyl)carbamoyl)-4-methyl-6,8-dioxo-3,4,6,8, 12, 12a-hexahydro-2H-pyrido[1′,2′:4,5]pyrazino[2,1-b][1,3]oxazin-7-olate]
change in PXRD pattern on storage [1]: no change in PXRD pattern
degradation on storage [1]: no significant degradation
increase in moisture content on storage [1]: no substantial increase in moisture content
physical and chemical stability (conclusion) [1]: physically and chemically stable
HPLC purity (%) [1, 3]: 99.17%
PXRD (polymorph found) [1, 3]: Form-M4
HPLC purity (%) [1, 4]: 99.10%
PXRD (polymorph found) [1, 4]: Form-M4
HPLC purity (%) [1, 5]: 99.0%
PXRD (polymorph found) [1, 5]: Form-M4
HPLC purity (%) [1, 6]: 99.24%
PXRD (polymorph found) [1, 6]: Form-M4
HPLC purity (%) [1, 7]: 99.2%
PXRD (polymorph found) [1, 7]: Form-M4
HPLC purity (%) [1, 8]: 99.1%
PXRD (polymorph found) [1, 8]: Form-M4
HPLC purity (%) [1, 9]: 99.0%
PXRD (polymorph found) [1, 9]: Form-M4
HPLC purity (%) [1, 10]: 99.2%
PXRD (polymorph found) [1, 10]: Form-M4

C[C@@H]1CCO[C@H]2Cn3cc(C(=O)NCc4ccc(F)cc4F)c(=O)c([O-])c3C(=O)N12.[Na+] [Form-M3, sodium (4R, 12aS)-9-((2,4-difluorobenzyl)carbamoyl)-4-methyl-6,8-dioxo-3,4,6,8, 12, 12a-hexahydro-2H-pyrido[1′,2′:4,5]pyrazino[2,1-b][1,3]oxazin-7-olate]
thermodynamic stability [2]: only metastable and not thermodynamically stable

Reference: patent US10087193B2, “Crystalline forms of dolutegravir sodium” (Mylan Laboratories Ltd., priority 2014, dated 2018)
